The text below walks through data of patent publication US20130225535A1, “SYNERGISTIC FUNGICIDAL COMPOSITION” (MAKHTESHIM CHEMICAL WORKS LTD., priority 2010, published 2013).

One experiment relates to Plasmopara viticola. The experiment in a line: Control of Plasmopara viticola (downy mildew) on detached grapevine leaves, ED90 by Probit analysis, synergy by Wadley method. The format is in vivo. Conditions: detached grape leaves, spray before inoculation, 7-10 days after inoculation. The method, then: (§1) A synergistic effect exists whenever the action of an active ingredient combination is greater than the sum of the actions of the individual components. The Wadley Method is well-known method for determining whether synergy exists. In the Wadley Method, synergistic activity is determined from dose, response curves. With this method, the efficacy of the active ingredient (“a.i.”) is determined by comparing the degree of fungal attack on treated plants with that on untreated, similarly inoculated and incubated check plants. Each a.i. is generally tested at multiple (e.g., six) concentrations and dose response curves are generated. The dose response curves are used to establish the ED90 (i.e., estimated concentration required to produce 90% killing of fungi) of the individual compounds as well as of the combinations (ED90observed). The experimentally found values of the mixture at a given weight ratio are compared with the values that would have been found where only a complementary efficacy of the components was present (ED90 (A+B) expected). The ED90 (A+B) expected is generally calculated according to Wadley (Levi et al., EPPO-Bulletin 16, 1986, 651-657) or (Wadley, F. M., U.S. Dep. Agric., Agric. Res. Adm., Bur. Entomol. And Plant Quar. ET-223, 1945, 8) as follows:
(§2) wherein a and b are the weight ratios of the compounds A and B in the mixture and the indexes (A), (B) and (A+B) refer to the observed ED90values of the compounds A, B or the A+B mixture thereof. The ratio ED90 (A+B)expected/ED90 (A+B)observed expresses the level of the synergistic factor (SF).
A trial was conducted to in order to estimate the synergistic interaction between three fungicides in controlling the oomycete, Plasmopara viticola, the downy mildew causal agent, in grapevines.
Commercially available compositions of dimethomorph (Sphinx 50 SC), folpet (Folpan 80 WDG) and fosetyl-Al (Aliette 80 WDG), as well as 80 wt. %, WDG composition comprising a combination of dimethomorph, folpet and fosetyl-Al (mixed at a weight ratio of 1:5:10) were suspended in water, diluted to a series of concentrations in water and sprayed onto the lower leaf surface of detached grape leaves to initial run off.
Two cultivars of grapevines (Vitis vinifera) were used: Carinian and Merlo, both susceptible to P. viticola. Grafted Carinian plants were grown in pots in the greenhouse whereas Merlo vines were grown in the field. Plants were regularly sprayed with appropriate fungicides to protect them against powdery mildew (Uncinulla necator). In total, five experiments were conducted, three with Carinian and two with Merlo.
The 3rd and the 4th leaf from top of a branch were detached, sprayed on lower leaf surface with a fungicide, three leaves per fungicide per concentration per cultivar, and placed lower surface uppermost on moist filter paper in a plastic tray (70×50×5 cm). Normally, one tray served for one cultivar and one fungicide and contained 27 leaves (21 leaves treated with 7 doses of a fungicide+6 control untreated leaves).
Trays with the sprayed leaves were placed in a ventilated hood for about one hour until the spray droplets dried off and thereafter were inoculated with the pathogen.
An isolate of P. viticola was propagated on detached leaves of Carinian by repeated inoculations. Sporangia were harvested from freshly sporulating leaves into ice-cold distilled water, their concentration adjusted to 1×10^5 sporangia/ml. Sporangial suspension was sprayed onto the lower surface of the treated and control leaves laying in the trays. Trays were thereafter wrapped with cellophane bags, kept at 15° C. in the dark for 20 h and then at 20° C. under 14 h light photoperiod. At 7-10 days after inoculation, disease development was recorded by visual estimation of the leaf area occupied with sporophores and spores of P. viticola.
Mean sporulating leaf area was then calculated for each treatment (n=3, n for control=6). A mean value was calculated for all four controls in an experiment. […]

Experiment [1] relates to DMM-resistant isolates of Pseudoperonospora cubensis. The experiment in a line: Control of DMM-resistant isolates of Pseudoperonospora cubensis on intact cucumber plants, ED90 and Wadley synergy. In kind it is in vivo. Conditions: for ED90 observed Trial 1: Trial 1, downy mildew lesions per leaf; for ED90 observed Trial 2: Trial 2, downy mildew lesions per leaf. The method, then:
as §1, §2
A trial was conducted to estimate the synergistic interaction between three fungicides in controlling DMM-resistant isolates of P. cubensis, the causal agent of downy mildew in cucurbits.
Commercially available compositions of dimethomorph (Sphinx 50 SC), folpet (Folpan 80 WDG) and fosetyl-Al (Aliette 80 WDG), as well as 80 wt. %, WDG composition comprising a combination of dimethomorph, folpet and fosetyl-Al (mixed at a weight ratio of 1:5:10) were suspended in water, diluted to a series of concentrations in water, and sprayed initial run off.
Two isolates of P. cubensis were used. Intact, two-true leaf cucumber plants (n=2) were used for inoculation. Inoculation and incubation were conducted according to the description in example 1, except that sporangial concentration was adjusted to 2×103 sporangia/ml. Disease records were taken by counting the number of downy mildew lesions per leaf (n=4). Data analysis was done as described in Example 1.

In the case of `COc1ccc(C(=CC(=O)N2CCOCC2)c2ccc(Cl)cc2)cc1OC` [Dimethomorph, dimethomorph], in the experiment on Plasmopara viticola, the “ED90 observed Trial 1” value came out at 2.42 µg/mL, the “ED90 observed Trial 2” value amounted to 1.81 µg/mL, the “ED90 observed Trial 3” value came out at 0.91 µg/mL and the “ED90 observed Trial 4” value worked out at 3.95 µg/mL. Moreover, the “ED90 observed Trial 5” value in the experiment on Plasmopara viticola stood at 2.25 µg/mL. Besides, in experiment [1], the “ED90 observed Trial 1” value was 701 µg/mL and the “ED90 observed Trial 2” value was 424 µg/mL.

For `O=C1c2ccccc2C(=O)N1SC(Cl)(Cl)Cl` [Folpet, folpet], in the experiment with Plasmopara viticola, the “ED90 observed Trial 1” value worked out at 65.8 µg/mL, the “ED90 observed Trial 2” value was 30.6 µg/mL, the “ED90 observed Trial 3” value was found to be 57.1 µg/mL and the “ED90 observed Trial 4” value amounted to 61.8 µg/mL. In the experiment on Plasmopara viticola, the “ED90 observed Trial 5” value is 39.8 µg/mL. In experiment [1], the “ED90 observed Trial 1” value is 254 µg/mL and the “ED90 observed Trial 2” value came out at 81 µg/mL.

For `CCO[PH](=O)O` [Fosetyl-Al, fosetyl-Al], in the experiment on Plasmopara viticola, the “ED90 observed Trial 1” value came to 936 µg/mL, the “ED90 observed Trial 2” value came out at 1522 µg/mL, the “ED90 observed Trial 3” value amounted to 611 µg/mL and the “ED90 observed Trial 4” value came out at 274 µg/mL. In addition, the “ED90 observed Trial 5” value in the experiment with Plasmopara viticola amounted to 297 µg/mL. In experiment [1], the “ED90 observed Trial 1” value worked out at 2088 µg/mL and the “ED90 observed Trial 2” value amounted to 508 µg/mL.
